From US9593149B2, “Amylin and calcitonin receptor agonist” (Novo Nordisk A/S, priority 2014, dated 2017)
Converted amounts (≈) assume the structure as drawn. Numbered stars: 1 amine (or outer) side, 2 acyl side, 3 side chain; on linkers, the order of the positions; unused ones are H or OH. Peptide text beside a SMILES is read from it. * marks the point of attachment. C20 diacid = O=C(O)CCCCCCCCCCCCCCCCCCC(=O)*; C18 diacid = O=C(O)CCCCCCCCCCCCCCCCC(=O)*; γGlu = O=C(O)[C@H](CCC(=O)[*:2])N[*:1]; AEEA = NCCOCCOCC(=O)O

Assay: Assay (IV) determination of solubility
Type: physicochemical
Procedure: Assay (IV)—Determination of Solubility
The mimylin peptide was dissolved in water at ˜500 nmol/ml and mixed 1:1 with a series of buffers (100 mM glycylglycine pH 3.0, 100 mM glycylglycine pH 4.0, 100 mM glycylglycine pH 5.0, 100 mM bistrispropane pH 6.0, 100 mM bistrispropane pH 6.5, 100 mM bistrispropane pH 7.0, 100 mM bistrispropane pH 7.5, 100 mM bistrispropane pH 8.0).

| Solubility (pH 3.0) | Solubility (pH 4.0) | Solubility (pH 5.0) | Solubility (pH 6.0) | Solubility (pH 6.5) | Solubility (pH 7.0) | Solubility (pH 7.5) | Solubility (pH 8.0) | solubility at 18 h (pH 4.0) [µM] | solubility at 18 h (pH 5.0) [µM] | Compound |
| --- | --- | --- | --- | --- | --- | --- | --- | --- | --- | --- |
| ≧200 μM | – | – | ≧200 μM | ≧200 μM | ≧200 μM | ≧200 μM | ≧200 μM | 7 (≈ 26.4 µg/mL) | 11 (≈ 41.5 µg/mL) | CC[C@H](C)[C@H](NC(=O)[C@H](C)NC(=O)[C@@H](NC(=O)[C@H](CO)NC(=O)[C@@H](NC(=O)[C@H](CCC(=O)O)NC(=O)[C@H](CO)NC(=O)[C@H](C)NC(=O)[C@H](CCC(=O)O)NC(=O)CCCCCCCCCCCCCCCCC(=O)O)[C@@H](C)CC)[C@@H](C)O)C(=O)N[C@H](C(=O)NCC(=O)N[C@@H](CCCNC(=N)N)C(=O)N[C@@H](CC(C)C)C(=O)N[C@@H](CO)C(=O)N[C@@H](C)C(=O)N[C@@H](CCC(=O)O)C(=O)N[C@@H](CC(C)C)C(=O)N[C@@H](Cc1cnc[nH]1)C(=O)N[C@@H](CCC(=O)O)C(=O)N[C@H](C(=O)N[C@@H](C)C(=O)N[C@H](C(=O)N[C@@H](CC(C)C)C(=O)N1CCC[C@H]1C(=O)N[C@@H](CCCNC(=N)N)C(=O)N[C@H](C(=O)N[C@@H](CCC(=O)O)C(=O)N[C@H](C(=O)NCC(=O)N1CCC[C@H]1C(=O)N[C@@H](CCC(=O)O)C(=O)N[C@@H](CO)C(=O)N1CCC[C@H]1C(N)=O)[C@@H](C)O)[C@@H](C)O)[C@@H](C)O)[C@@H](C)CC)[C@@H](C)CC [compound 77, [N-terminal(C18 diacid), 5I, 9I, 10I, 20I]mimylin] ({C18 diacid}-EASEISTAIIGRLSAELHEIATLPRTETGPESP-NH2) |
| ≧200 μM | ≧200 μM | ≧200 μM | ≧200 μM | ≧200 μM | ≧200 μM | ≧200 μM | ≧200 μM | – | – | CC(C)C[C@H](NC(=O)[C@H](CCC(=O)O)NC(=O)[C@H](Cc1cnc[nH]1)NC(=O)[C@H](CC(C)C)NC(=O)[C@H](CCC(=O)O)NC(=O)[C@H](C)NC(=O)[C@H](CO)NC(=O)[C@H](CC(C)C)NC(=O)[C@H](CCCNC(=N)N)NC(=O)CNC(=O)[C@H](CC(C)C)NC(=O)[C@@H](NC(=O)[C@H](C)NC(=O)[C@@H](NC(=O)[C@@H](NC(=O)[C@H](CC(C)C)NC(=O)[C@H](CCC(=O)O)NC(=O)[C@H](CO)NC(=O)[C@H](C)NC(=O)CC[C@H](NC(=O)CCCCCCCCCCCCCCCCC(=O)O)C(=O)O)[C@@H](C)O)[C@@H](C)O)C(C)C)C(=O)N[C@@H](C)C(=O)N[C@H](C(=O)N[C@@H](CC(C)C)C(=O)N1CCC[C@H]1C(=O)N[C@@H](CCCNC(=N)N)C(=O)N[C@H](C(=O)N[C@@H](CCC(=O)O)C(=O)N[C@H](C(=O)NCC(=O)N[C@H](C(=O)NCC(=O)N[C@H](C(=O)N1CCC[C@H]1C(N)=O)[C@@H](C)O)[C@@H](C)O)[C@@H](C)O)[C@@H](C)O)[C@@H](C)O [compound 95, [N-terminal(C18 diacid-gGlu), des1, 6T, 9V, 30T, 31G, 32T]mimylin] ({C18 diacid-γGlu}-ASELTTAVLGRLSAELHELATLPRTETGTGTP-NH2) |
| ≧200 μM | ≧200 μM | ≧200 μM | ≧200 μM | ≧200 μM | ≧200 μM | ≧200 μM | ≧200 μM | – | – | CC(C)C[C@H](NC(=O)[C@H](C)NC(=O)[C@H](C)NC(=O)[C@@H](NC(=O)[C@H](CO)NC(=O)[C@H](CC(C)C)NC(=O)[C@H](CCC(=O)O)NC(=O)[C@H](CO)NC(=O)[C@H](C)NC(=O)COCCOCCNC(=O)COCCOCCNC(=O)COCCOCCNC(=O)CC[C@H](NC(=O)CCCCCCCCCCCCCCCCCCC(=O)O)C(=O)O)[C@@H](C)O)C(=O)NCC(=O)N[C@@H](CCCNC(=N)N)C(=O)N[C@@H](CC(C)C)C(=O)N[C@@H](CO)C(=O)N[C@@H](C)C(=O)N[C@@H](CCC(=O)O)C(=O)N[C@@H](CC(C)C)C(=O)N[C@@H](Cc1cnc[nH]1)C(=O)N[C@@H](CCC(=O)O)C(=O)N[C@@H](CC(C)C)C(=O)N[C@@H](C)C(=O)N[C@H](C(=O)N[C@@H](CC(C)C)C(=O)N1CCC[C@H]1C(=O)N[C@@H](CCCNC(=N)N)C(=O)N[C@H](C(=O)N[C@@H](CCC(=O)O)C(=O)N[C@H](C(=O)NCC(=O)N[C@@H](CO)C(=O)NCC(=O)N[C@@H](CO)C(=O)N1CCC[C@H]1C(N)=O)[C@@H](C)O)[C@@H](C)O)[C@@H](C)O [compound 43, [N-terminal(C20 diacid-gGlu-3xOEG), des1, 30S, 31G]mimylin] ({C20 diacid-γGlu-AEEA-AEEA-AEEA}-ASELSTAALGRLSAELHELATLPRTETGSGSP-NH2) |
| ≧200 μM | ≧200 μM | ≧200 μM | ≧200 μM | ≧200 μM | ≧200 μM | ≧200 μM | ≧200 μM | – | – | CC(C)C[C@H](NC(=O)[C@H](CCC(=O)O)NC(=O)[C@H](Cc1cnc[nH]1)NC(=O)[C@H](CC(C)C)NC(=O)[C@H](CCC(=O)O)NC(=O)[C@H](C)NC(=O)[C@H](CO)NC(=O)[C@H](CC(C)C)NC(=O)[C@H](CCCNC(=N)N)NC(=O)CNC(=O)[C@H](CC(C)C)NC(=O)[C@@H](NC(=O)[C@H](C)NC(=O)[C@@H](NC(=O)[C@H](CO)NC(=O)[C@H](CC(C)C)NC(=O)[C@H](CCC(=O)O)NC(=O)[C@@H]1CCCN1C(=O)[C@H](C)NC(=O)[C@H](CCC(=O)O)NC(=O)CCCCCCCCCCCCCCCCC(=O)O)[C@@H](C)O)C(C)C)C(=O)N[C@@H](C)C(=O)N[C@H](C(=O)N[C@@H](CC(C)C)C(=O)N1CCC[C@H]1C(=O)N[C@@H](CCCNC(=N)N)C(=O)N[C@H](C(=O)N[C@@H](CCC(=O)O)C(=O)N[C@H](C(=O)NCC(=O)N1CCC[C@H]1C(=O)N[C@@H](CCC(=O)O)C(=O)N[C@@H](CO)C(=O)N1CCC[C@H]1C(N)=O)[C@@H](C)O)[C@@H](C)O)[C@@H](C)O [compound 29, [N-terminal(C18 diacid), 3P, 9V]mimylin] ({C18 diacid}-EAPELSTAVLGRLSAELHELATLPRTETGPESP-NH2) |
| ≧200 μM | ≧200 μM | – | ≧200 μM | ≧200 μM | ≧200 μM | ≧200 μM | ≧200 μM | – | 169 (≈ 638 µg/mL) | CC(C)C[C@H](NC(=O)[C@H](CCCNC(=N)N)NC(=O)CNC(=O)[C@H](CC(C)C)NC(=O)[C@@H](NC(=O)[C@H](C)NC(=O)[C@@H](NC(=O)[C@H](CO)NC(=O)[C@H](CC(C)C)NC(=O)[C@H](CCC(=O)O)NC(=O)[C@H](CO)NC(=O)[C@H](C)NC(=O)CC[C@H](NC(=O)CCCCCCCCCCCCCCCCCCC(=O)O)C(=O)O)[C@@H](C)O)[C@@H](C)O)C(=O)N[C@@H](CO)C(=O)N[C@@H](C)C(=O)N[C@@H](CCC(=O)O)C(=O)N[C@@H](CC(C)C)C(=O)N[C@@H](Cc1cnc[nH]1)C(=O)N[C@@H](CCC(=O)O)C(=O)N[C@@H](CC(C)C)C(=O)N[C@@H](CO)C(=O)N[C@H](C(=O)N[C@@H](Cc1ccc(O)cc1)C(=O)N1CCC[C@H]1C(=O)N[C@@H](CCCNC(=N)N)C(=O)N[C@H](C(=O)N[C@@H](CCC(=O)O)C(=O)N[C@H](C(=O)NCC(=O)N[C@@H](CO)C(=O)NCC(=O)N[C@@H](CO)C(=O)N1CCC[C@H]1C(N)=O)[C@@H](C)O)[C@@H](C)O)[C@@H](C)O [compound 92, [N-terminal(C20 diacid-gGlu), des1, 9T, 21S, 23Y, 30S, 31G]mimylin] ({C20 diacid-γGlu}-ASELSTATLGRLSAELHELSTYPRTETGSGSP-NH2) |

| Compound | Solubility (pH 3.0) | Solubility (pH 4.0) | Solubility (pH 5.0) | Solubility (pH 6.0) | Solubility (pH 6.5) | Solubility (pH 7.0) | Solubility (pH 7.5) | Solubility (pH 8.0) | solubility at 18 h (pH 4.0) [µM] | solubility at 18 h (pH 5.0) [µM] |
| --- | --- | --- | --- | --- | --- | --- | --- | --- | --- | --- |
| CC(C)C[C@H](NC(=O)[C@H](C)NC(=O)[C@@H](NC(=O)[C@H](CO)NC(=O)[C@H](CC(C)C)NC(=O)[C@H](CCC(=O)O)NC(=O)[C@H](CO)NC(=O)[C@H](C)NC(=O)[C@H](CCC(=O)O)NC(=O)CCCCCCCCCCCCCCCCC(=O)O)[C@@H](C)O)C(=O)N[C@@H](C)C(=O)NCC(=O)N[C@@H](CCCNC(=N)N)C(=O)N[C@@H](CC(C)C)C(=O)N[C@@H](CO)C(=O)N[C@@H](C)C(=O)N[C@@H](CCC(=O)O)C(=O)N[C@@H](CC(C)C)C(=O)N[C@@H](Cc1cnc[nH]1)C(=O)N[C@@H](CCC(=O)O)C(=O)N[C@@H](CC(C)C)C(=O)N[C@@H](C)C(=O)N[C@H](C(=O)N[C@@H](CC(C)C)C(=O)N1CCC[C@H]1C(=O)N[C@@H](CCCNC(=N)N)C(=O)N[C@H](C(=O)N[C@@H](CCC(=O)O)C(=O)N[C@H](C(=O)NCC(=O)N1CCC[C@H]1C(=O)N[C@@H](CCC(=O)O)C(=O)N[C@@H](CO)C(=O)N1CCC[C@H]1C(N)=O)[C@@H](C)O)[C@@H](C)O)[C@@H](C)O [compound 27, [N-terminal(C18 diacid), 9L, 10A]mimylin] ({C18 diacid}-EASELSTALAGRLSAELHELATLPRTETGPESP-NH2) | ≧200 μM | ≧200 μM | ≧200 μM | ≧200 μM | ≧200 μM | ≧200 μM | ≧200 μM | ≧200 μM | – | – |
